According to patent US20120101104A1, “TOPICAL GEL COMPOSITIONS AND METHODS OF USE” (GALDERMA S.A., priority 2010, published 2012):

Tests used:
[1] = Microscopic observation of gel compositions for methylparaben crystalline particles; assay type: physicochemical
Procedure: Microscopic observations were performed on additional representative batches of brimonidine topical gel compositions and placebo gel compositions containing 1.25% (w/w) carbomer, POBM and other ingredients. The observations have been done on one tube of each batch, with the microscope Axiolab DRBKT Zeiss no. 023733.01 with a camera ICC Zeiss or the microscope Olympus BX60. The microscopic observations were done at 5° C. and room temperature.
Numerous formulations with different ingredients and varying concentrations of the ingredients were made and tested for the presence of the paraben crystals by microscopic observations. The microbiological quality of the formulations was also analyzed by using acceptance-test criteria in preservative-efficacy testing (PET) in the United States Pharmacopeia (USP) and the European Pharmacopoeia (EP).

[2] = Methylparaben concentration in supernatant after centrifugation of a batch with crystals; assay type: physicochemical
Procedure: Centrifugation was performed on the batch to collect crystals at the bottom of the centrifuge tube, thus removing them from the supernatant.

recrystallization in formulation ([1]; 0.3% (w/w) POBM, addition of 0.1% of EDTA) | supernatant methylparaben as share of the 0.3% (w/w) in the original formulation ([2]; batch originally containing 0.3% (w/w) methylparaben) | methylparaben concentration in the supernatant ([2]; batch originally containing 0.3% (w/w) methylparaben with crystals, after centrifugation) | Compound | crystalline particles in formulation ([1]; methylparaben replaced with Na POBM at 0.3% (w/w))
– | – | – | COC(=O)c1ccc([O-])cc1.[Na+] [Na POBM] | crystalline particles of Na POBM were still observed
immediate recrystallization | about 66% | about 0.2 % (w/w) | COC(=O)c1ccc(O)cc1 [methylparaben] | –
